{"source": "patent US20080085885A1", "about": "“Inhibition Of Voluntary Ethanol Consumption With Non-Peptidyl Melanocortin-4 Receptor Agonists” (priority 2004, published 2008)", "key": {"hMC1bR": {"biological_target": "hMC1bR (Homo sapiens, UniProt Q01726)", "sequence (Q01726 whole entry)": "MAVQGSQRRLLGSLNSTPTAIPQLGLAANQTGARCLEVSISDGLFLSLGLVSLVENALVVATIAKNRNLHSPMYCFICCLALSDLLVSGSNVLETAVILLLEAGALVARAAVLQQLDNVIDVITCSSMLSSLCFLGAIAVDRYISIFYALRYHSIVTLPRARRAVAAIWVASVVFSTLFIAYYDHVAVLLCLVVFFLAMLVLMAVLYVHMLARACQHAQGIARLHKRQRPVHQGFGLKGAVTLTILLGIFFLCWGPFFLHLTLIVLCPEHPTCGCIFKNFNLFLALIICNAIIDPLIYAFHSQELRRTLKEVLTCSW", "assay": "cAMP functional assay (agonist)", "format": "cell-based", "conditions": "functional selectivity stated in text; 45 min", "description": "Cells (for example, CHO- or L-cells or other eukaryotic cells) expressing a human melanocortin receptor (see e.g. Yang-YK; Ollmann-MM; Wilson-BD; Dickinson-C; Yamada-T; Barsh-GS; Gantz-I; Mol-Endocrinol. 1997 March; 11(3): 274-80) were dissociated from tissue culture flasks by rinsing with Ca and Mg free phosphate buffered saline (14190-136, Life Technologies, Gaithersburg, Md.) and detached following 5 min incubation at 37° C. with enzyme free dissociation buffer (S-014-B, Specialty Media, Lavellette, N.J.). Cells were collected by centrifugation and resuspended in Earle's Balanced Salt Solution (14015-069, Life Technologies, Gaithersburg, Md.) with additions of 10 mM HEPES pH 7.5, 5 mM MgCl2, 1 mM glutamine and 1 mg/ml bovine serum albumin. Cells were counted and diluted to 1 to 5×10^6/mL. The phosphodiesterase inhibitor 3-isobutyl-1-methylxanthine was added to cells to 0.6 mM.\nAgonist Assay: Test compounds were diluted in dimethylsulfoxide (DMSO) (10^−5 to 10^−10 M) and 0.1 volume of compound solution was added to 0.9 volumes of cell suspension; the final DMSO concentration was […]. After room temperature incubation for 45 min, cells were lysed by incubation at 100° C. for 5 min to release accumulated cAMP.\ncAMP was measured in an aliquot of the cell lysate with the Amersham (Arlington Heights, Ill.) cAMP detection assay (RPA556). […]"}, "Male Wistar rats [1]": {"tested_on": "Male Wistar rats", "assay": "Maintenance operant ethanol self-administration (animal model of alcohol reward)", "format": "in vivo, rat", "description": "(§1) FIG. 1. Operant training for oral ethanol across 30 minute test sessions in rats (n=8-10). Rats were trained on a continuous reinforcement (FR-1) schedule using a saccharine fading procedure and once stable levels of ethanol self-administration (10% w/v) were achieved, testing was initiated. Test 1 examined the effects of melanocortin 4 receptor agonist, Compound A, on maintenance levels of ethanol self-administration and Test 2 examined the effects of Compound A on the Alcohol Deprivation Effect (ADE).\nFIG. 2. […] Operant training for oral ethanol in 30 minute test sessions in rats (n=8-10). Melanocortin 4 receptor agonist, Compound A, was administered at 0, 5, 10 or 20 mg/kg, po prior to testing. […] The symbol * indicates a significant difference between the vehicle and drug treated groups (p<0.05).\nAnimals: Male Wistar rats were used in all experiments. Body weight was 180-200 g at the start of the experiments. Rats were housed 2-3 per cage with food and water available ad libitum. Lights were on a 12-hour light/dark cycle, with lights on at 0600. All procedures met the guidelines of the National Institutes of Health Guide for the Care and Use of Laboratory Animals.\nOperant Ethanol Self-Administration: Ethanol dilutions (5, 8 and 10% w/v) were prepared with 95% ethyl alcohol and tap water. Saccharin (Sigma Chemical Co., St. Louis, Mo.) was added to water or ethanol solutions to achieve a concentration of 0.2% w/v. Standard operant chambers (Med Associates, VT) housed in sound-attenuated chambers were used for ethanol self-administration. Syringe pumps dispensed ethanol and water into two stainless steel reservoirs mounted 4 cm above the floor of the chamber, centered between the two operant levers. The two retractable levers were located 4.5 cm to either side of the fluid reservoir. Fluid delivery and recording of operant responding were controlled by microcomputer. Rats were trained on a continuous reinforcement fixed-ratio 1 (FR1) schedule to self-administer oral alcohol (10% w/v, 0.1 ml per delivery) or water in 30 minute sessions. […]"}, "Male Wistar rats [2]": {"tested_on": "Male Wistar rats", "assay": "Alcohol deprivation effect (ADE) after 10 day deprivation (animal model of alcohol relapse)", "format": "in vivo, rat", "conditions": "for Alcohol deprivation effect (ethanol consumed after 10 day deprivation): po", "description": "as §1\nFIG. 3. […] Operant training for oral ethanol in 30 minute test sessions in rats (n=8-10). Following the maintenance self-administration test, rats were rebaselined prior to being confined to their home-cages for a 10 day deprivation period. Melanocortin 4 receptor agonist, Compound A was administered at 0, 5, 10 or 20 mg/kg, po prior to reintroduction to the test chambers following deprivation. […] The symbol * indicates a significant difference between baseline and drug treated groups (p<0.05). The symbol # indicates a significant difference between vehicle treated (ADE) and drug treated groups (p<0.05).\nMethod: Methods for this experiment were as described in EXAMPLE 3. Following the maintenance ethanol self-administration experiment, rats were re-baselined and once reliable levels of alcohol-reinforced self-administration were achieved, rats were confined to their home cages for a 10-day period. Prior to reintroduction to the test chamber, animals were injected with Compound (0, 5, 10 and 20 mg/kg)."}, "AA rats": {"tested_on": "AA rats", "conditions": "AA rats with established ethanol intake; Ploj et al. 2002; cited from earlier work"}}, "note": "Entries after “also recorded” stand apart in the source; their conditions may differ."}
{"compound": "CC[C@H](NC(C)=O)c1cc(Cl)ccc1C1CCN(C(=O)C2CN(C(C)(C)C)C[C@H]2c2ccc(F)cc2F)CC1", "note": "(stereo partly shown) [Compound A]", "values": [{"measurement": "EC50 for melanocortin 4 receptor lower than for melanocortin 1 receptor", "setting": "hMC1bR", "result": "at least 120 fold"}, {"measurement": "Ethanol self-administration (10% w/v), 30 minute session", "setting": "Male Wistar rats [1]; 20 mg/kg, po, vs vehicle/baseline, p<0.05", "result": "significant reductions from baseline levels; also recorded: significant reduction in ethanol self-administration"}, {"measurement": "Water consumption", "setting": "Male Wistar rats [1]; maintenance test, any dose (5, 10, 20 mg/kg, po)", "result": "not significantly altered; also recorded: not significantly changed; also recorded: no significant effects on water consumption"}, {"measurement": "Reduction of ethanol self administration", "setting": "Male Wistar rats [1]; male Wistar rats, dose dependent, FIG. 2", "result": "approximately 50%"}, {"measurement": "Alcohol deprivation effect (ethanol consumed after 10 day deprivation)", "setting": "Male Wistar rats [2]; 5 mg/kg", "result": "blocking the ADE; also recorded: significant attenuation of the alcohol deprivation effect"}, {"measurement": "Alcohol deprivation effect (ethanol consumed after 10 day deprivation)", "setting": "Male Wistar rats [2]; 10 mg/kg", "result": "blocking the ADE; also recorded: significant attenuation of the alcohol deprivation effect"}, {"measurement": "Alcohol deprivation effect (ethanol consumed after 10 day deprivation)", "setting": "Male Wistar rats [2]; 20 mg/kg", "result": "significant decrease below baseline levels of consumption; also recorded: further reduction below baseline levels"}, {"measurement": "Water consumption", "setting": "Male Wistar rats [2]; ADE test, any dose (5, 10, 20 mg/kg, po)", "result": "not significantly altered; also recorded: not significantly changed"}, {"measurement": "Alcohol deprivation effect, overall statement", "setting": "Male Wistar rats [2]; male Wistar rats, 10 day forced deprivation, FIG. 3", "result": "reduced the increase in ethanol consumption"}]}
{"compound": "MTII", "values": [{"measurement": "Voluntary ethanol drinking", "setting": "AA rats", "result": "significantly reduces voluntary ethanol drinking"}]}
